# Laboratory results as given in EP2712863B1, “Novel inhibitors of bacterial biofilms and related methods” (Sequoia Sciences, Inc., priority 2012, dated 2014).
# Where two headings read alike, the source gives them in different places.
# Assays:
# Type in all cases: cell-based
# [1] = system: P. aeruginosa; assay: Biofilm growth assay (spreading biofilm on semi-solid agar); set-up: P. aeruginosa (n=10): unit not given here; conditions: for P. aeruginosa (n=10): Table 6, inhibitory concentration in the biofilm growth assay, n = number of isolates tested; for IC85: Pseudomonas aeruginosa
# [2] = system: Salmonella spp.; assay: Biofilm growth assay, multiple isolates; conditions: Table 6; inhibitory concentration in the biofilm growth assay; n = number of isolates tested
# Experimental: (§1) The biofilm growth assay was carried out to measure swarming or biofilm spreading on semi-solid agar media in round plates (for example, 100 × 15 mm), also referred to as Petri dishes. For E. coli, the plates contained LB medium with 0.6% agar and 0.5% glucose. P. aeruginosa plates were made with M8 agar supplemented with 0.2% glucose, 100 µM CaCl2, 1 mM MgSO4, and 0.5% Casamino acids. The agar plates of this assay consisted of 0.4% to 0.7% agar (Bacto or Noble agar), although other media may also be used as described in the literature and known to those skilled in the art. Test compounds at the desired concentration were added to the cooled, autoclaved media. Portions of the media were then poured into the plates (20 mL/plate), and the plates allowed to dry at room temperature for approximately 3 to 4 hours. Alternatively, however, plates may be dried in a laminar flow hood for approximately fifteen to twenty minutes. Overnight cultures were grown in a 37°C shaker in LB (E. coli) or TSB (P. aeruginosa). Plates were inoculated by placing 5 µL of the appropriate overnight culture in the centers of the plates. The plates then were incubated overnight at 37°C. The area of the zone of spreading bacteria was then measured and replicates are averaged. Percent inhibition was calculated as 100 × (area without compound - area with compound)/(area without compound). An active compound was considered that which reduces the area of the spreading biofilm compared to negative controls by greater than or equal to 85%. The values shown in Table 1 are the concentrations of compounds (µg/ml) tested in the biofilm growth assay that reduce the area of the spreading biofilm compared to negative controls by greater than or equal to 85% unless noted differently in Table 1. A > ("greater than" symbol) as used in Table 1 is well understood to those skilled in the art as an indication that the listed concentration was not effective at this concentration.
# (§2) Table 6, below, lists the inhibitory concentrations of select compounds and antibiotics in the biofilm growth assay against various gram-negative bacterial biofilms. "N" means the number of isolates of bacteria tested. The biofilm growth assay procedure detailed in Example I, above, was followed. Burkholderia cepacia used media consisting of M9 salts, 100 µM CaCl2, 1 mM MgS04, and 0.7% citrate in 0.4% Noble agar. Salmonella spp. used media consisting of Nutrient Broth with 0.5% glucose in 0.5% Noble agar.
# [3] = system: Burkholderia cepacia; assay: Biofilm growth assay, multiple isolates; conditions: Table 6; inhibitory concentration in the biofilm growth assay; n = number of isolates tested
# Experimental: as §1, §2
# [4] = system: E. coli; assay: Biofilm growth assay (spreading biofilm on semi-solid agar); set-up: E. coli (n=10): unit: ug/mL; conditions: for E. coli (n=10): Table 6, inhibitory concentration in the biofilm growth assay, n = number of isolates tested; for IC85: Escherichia coli
# In short: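 Spreading (swarming) biofilm on semi-solid agar: E. coli on LB with 0.6% agar and 0.5% glucose; P. aeruginosa on M8 agar with 0.2% glucose, 100 µM CaCl2, 1 mM MgSO4, 0.5% Casamino acids. Compound in medium; 5 µL overnight culture spotted centrally, 37°C overnight. Value: concentration (µg/ml) giving ≥85% reduction in spread area versus negative control.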
# [5] = Table 4, concentration that reduces the area of the spreading biofilm by >= 85%, read-out: P. aeruginosa
# [6] = Table 4, concentration that reduces the area of the spreading biofilm by >= 85%, read-out: E. coli
# [7] = read-out: P. aeruginosa (µg/ml)
# [8] = Table 5, concentration that reduces the area of the spreading biofilm by >= 85%, read-out: P. aeruginosa
# [9] = Table 5, concentration that reduces the area of the spreading biofilm by >= 85%, read-out: E. coli
# [10] = Table 1, concentration that reduces the area of the spreading biofilm vs negative controls by >= 85%, > means not effective at this concentration, read-out: P. aeruginosa
# [11] = Table 1, concentration that reduces the area of the spreading biofilm vs negative controls by >= 85%, > means not effective at this concentration, read-out: E. coli
smiles,measurement,setting,value
"CC[C@H]1OC(=O)[C@H](C)[C@@H](O[C@H]2C[C@@](C)(OC)[C@@H](O)[C@H](C)O2)[C@H](C)[C@@H](O[C@@H]2O[C@H](C)C[C@H](N(C)C)[C@H]2O)[C@](C)(O)C[C@@H](C)CN(C)[C@H](C)[C@@H](O)[C@]1(C)O [Azithromycin, azithromycin]",P. aeruginosa (n=10),[1],> 16
same,inhibitory concentration in biofilm growth assay,[2],> 16
same,inhibitory concentration,[3],> 16
"CC(C)(O/N=C(\C(=O)N[C@@H]1C(=O)N2C(C(=O)[O-])=C(C[n+]3ccccc3)CS[C@H]12)c1csc(N)n1)C(=O)O [Ceftazidime, ceftazidime, reference compound]",P. aeruginosa (n=10),[1],4
same,inhibitory concentration in biofilm growth assay,[2],0.5
same,inhibitory concentration,[3],> 8
same,E. coli (n=10),[4],0.25
"CN(C)CCc1c([C@]23CCC(C)(C)CC2C2=CCC4[C@@]5(C)Cc6c(n[nH]c6N)C(C)(C)C5CC[C@@]4(C)[C@]2(C)CC3)n[nH]c1O (stereo partly drawn) [Compound 85, 3-((4aS,6aS,6bR,13aR)-12-Amino-2,2,6a,6b,9,9,13a-heptamethyl-2,3,4,4a,5,6,6a,6b,7,8,8a,9,11,13,13a,13b,14,15b-octadecahydro-1H-chryseno[1,2-f]indazol-4a-yl)-4-(2-(dimethylamino)ethyl)-1H-pyrazol-5-ol]",IC85,[1]; [5],0.5 µg/mL
same,IC85,[4]; [6],1 µg/mL
"CNCCc1c([C@]23CCC(C)(C)CC2C2=CCC4[C@@]5(C)Cc6c(n[nH]c6N)C(C)(C)C5CC[C@@]4(C)[C@]2(C)CC3)n[nH]c1O (stereo partly drawn) [Compound 86, 3-((4aS,6aS,6bR,13aR)-12-Amino-2,2,6a,6b,9,9,13a-heptamethyl-2,3,4,4a,5,6,6a,6b,7,8,8a,9,11,13,13a,13b,14,15b-octadecahydro-1H-chryseno[1,2-f]indazol-4a-yl)-4-(2-(methylamino)ethyl)-1H-pyrazol-5-ol]",IC85,[1]; [5],0.5 µg/mL
same,IC85,[4]; [6],2 µg/mL
"CC1(C)CC[C@]2(c3n[nH]c(O)c3CCNC(N)=O)CC[C@]3(C)C(=CCC4[C@@]5(C)Cc6c(n[nH]c6N)C(C)(C)C5CC[C@]43C)C2C1 (stereo partly drawn) [Compound 87, 1-(2-(3-((4aS,6aS,6bR,13aR)-12-Amino-2,2,6a,6b,9,9,13a-heptamethyl-2,3,4,4a,5,6,6a,6b,7,8,8a,9,11,13,13a,13b,14,15b-octadecahydro-1H-chryseno[1,2-f]indazol-4a-yl)-5-hydroxy-1H-pyrazol-4-yl)ethyl)urea]",IC85,[1]; [5],0.5 µg/mL
same,IC85,[4]; [6],1 µg/mL
"CC1(C)CC[C@]2(c3n[nH]c(O)c3N3CCOCC3)CC[C@]3(C)C(=CCC4[C@@]5(C)Cc6c(n[nH]c6N)C(C)(C)C5CC[C@]43C)C2C1 (stereo partly drawn) [Compound 88, 3-((4aS,6aS,6bR,13aR)-12-Amino-2,2,6a,6b,9,9,13a-heptamethyl-2,3,4,4a,5,6,6a,6b,7,8,8a,9,11,13,13a,13b,14,15b-octadecahydro-1H-chryseno[1,2-f]indazol-4a-yl)-4-morpholino-1H-pyrazol-5-ol]",IC85,[1]; [5],0.25 µg/mL
same,IC85,[4]; [6],0.5 µg/mL
"CN1CCN(c2c([C@]34CCC(C)(C)CC3C3=CCC5[C@@]6(C)Cc7c(n[nH]c7N)C(C)(C)C6CC[C@@]5(C)[C@]3(C)CC4)n[nH]c2O)CC1 (stereo partly drawn) [Compound 89, 3-((4aS,6aS,6bR,13aR)-12-Amino-2,2,6a,6b,9,9,13a-heptamethyl-2,3,4,4a,5,6,6a,6b,7,8,8a,9,11,13,13a,13b,14,15b-octadecahydro-1H-chryseno[1,2-f]indazol-4a-yl)-4-(4-methylpiperazin-1-yl)-1H-pyrazol-5-ol]",IC85,[1]; [7],1 µg/mL
same,IC85,[4]; read-out: E. coli (µg/ml),1 µg/mL
"CC1(C)CC[C@]2(c3n[nH]c(O)c3N3CCNCC3)CC[C@]3(C)C(=CCC4[C@@]5(C)Cc6c(n[nH]c6N)C(C)(C)C5CC[C@]43C)C2C1 (stereo partly drawn) [Compound 90, 3-((4aS,6aS,6bR,13aR)-12-Amino-2,2,6a,6b,9,9,13a-heptamethyl-2,3,4,4a,5,6,6a,6b,7,8,8a,9,11,13,13a,13b,14,15b-octadecahydro-1H-chryseno[1,2-f]indazol-4a-yl)-4-(piperazin-1-yl)-1H-pyrazol-5-ol]",IC85,[1]; [7],0.5 µg/mL
same,IC85,[4]; read-out: E. coli (µg/ml),1 µg/mL
"CC1(C)CC[C@]2(C(=O)Sc3nnc(N)[nH]3)CC[C@]3(C)C(=C(c4cccnc4)CC4[C@@]5(C)Cc6c(n[nH]c6N)C(C)(C)[C@@H]5CC[C@]43C)[C@@H]2C1 (stereo partly drawn) [Compound 91, (4aS,6aS,6bR,8aR,13aR,15bS)-S-5-Amino-4H-1,2,4-triazol-3-yl 12-amino-2,2,6a,6b,9,9,13a-heptamethyl-15-(pyridin-3-yl)-2,3,4,4a,5,6,6a,6b,7,8,8a,9,11,13,13a,13b,14,15b-octadecahydro-1H-chryseno[1,2-f]indazole-4a-carbothioate]",IC85,[1]; [8],1 µg/mL
same,IC85,[4]; [9],1 µg/mL
"CC1(C)CC[C@]2(c3n[nH]c(O)c3CCN)CC[C@]3(C)C(=C(c4ccoc4CN4CCOCC4)CC4[C@@]5(C)Cc6c(n[nH]c6N)C(C)(C)[C@@H]5CC[C@]43C)[C@@H]2C1 (stereo partly drawn) [Compound 92, 3-((4aS,6aS,6bR,8aR,13aR,15bS)-12-Amino-2,2,6a,6b,9,9,13a-heptamethyl-15-(2-(morpholinomethyl)furan-3-yl)-2,3,4,4a,5,6,6a,6b,7,8,8a,9,11,13,13a,13b,14,15b-octadecahydro-1H-chryseno[1,2-f]indazol-4a-yl)-4-(2-aminoethyl)-1H-pyrazol-5-ol]",IC85,[1]; [8],0.5 µg/mL
same,IC85,[4]; [9],2 µg/mL
CC1(C)CC[C@]2(C(=O)O)CC[C@]3(C)C(=CCC4[C@@]5(C)Cc6c[nH]nc6C(C)(C)C5CC[C@]43C)C2C1 (some centres unmarked) [D],IC85,[1]; [10],1 µg/mL
same,IC85,[4]; [11],4 µg/mL
Cn1cc2c(n1)C(C)(C)C1CC[C@]3(C)C(CC=C4C5CC(C)(C)CC[C@]5(C(=O)O)CC[C@]43C)[C@@]1(C)C2 (some centres unmarked) [E],IC85,[1]; [10],2 µg/mL
same,IC85,[4]; [11],> 16 µg/mL
CC1(C)CC[C@]2(C(=O)O)CC[C@]3(C)C(=CCC4[C@@]5(C)Cc6c(n[nH]c6Br)C(C)(C)C5CC[C@]43C)C2C1 (some centres unmarked) [H],IC85,[1]; [10],8 µg/mL
same,IC85,[4]; [11],> 8 µg/mL
CC1(C)CC[C@]2(C(=O)O)CC[C@]3(C)C(=CC[C@@H]4[C@@]5(C)Cc6c(noc6N)C(C)(C)[C@@H]5CC[C@]43C)[C@@H]2C1 [K],IC85,[1]; [10],> 8 µg/mL
same,IC85,[4]; [11],> 8 µg/mL
CC1(C)CC[C@]2(C(=O)O)CC[C@]3(C)[C@H](C(=O)C=C4[C@@]5(C)C=C(C#N)C(=O)C(C)(C)[C@@H]5CC[C@]43C)[C@@H]2C1 [L],IC85,[1]; [10],> 16 µg/mL
same,IC85,[4]; [11],> 16 µg/mL
"C=C(C)[C@@H]1CC[C@]2(C)CC[C@]3(C)[C@H](CC[C@@H]4[C@@]5(C)CC[C@H](O)C(C)(C)[C@@H]5CC[C@]43C)[C@@H]12 [Lupeol, reference compound]",IC85,[1]; [10],> 16 µg/mL
same,IC85,[4]; [11],> 8 µg/mL
"COC(=O)[C@]12CCC(C)(C)CC1C1=CCC3[C@@]4(C)CC[C@H](O)C(C)(C)C4CC[C@@]3(C)[C@]1(C)CC2 (some centres unmarked) [Oleanolic acid methyl ester, reference compound]",IC85,[1]; [10],> 16 µg/mL
same,IC85,[4]; [11],> 16 µg/mL
"CC1(C)CC[C@]2(C(=O)O)CC[C@]3(C)C(=CC[C@@H]4[C@@]5(C)CC[C@H](O)C(C)(C)[C@@H]5CC[C@]43C)[C@@H]2C1 [Oleanolic acid, reference compound]",IC85,[1]; [10],4 µg/mL
same,P. aeruginosa (n=10),[1],8
same,inhibitory concentration in biofilm growth assay,[2],> 64
same,inhibitory concentration,[3],0.5
same,IC85,[4]; [11],> 8 µg/mL
same,E. coli (n=10),[4],16
"C[C@H]1[C@H](C)CC[C@]2(C(=O)O)CC[C@]3(C)C(=CC[C@@H]4[C@@]5(C)CC[C@H](O)C(C)(C)[C@@H]5CC[C@]43C)[C@H]12 [Ursolic acid, reference compound]",IC85,[1]; [10],8 µg/mL
same,IC85,[4]; [11],8 µg/mL
"C[C@H]1[C@H](C)CC[C@]2(CO)CC[C@]3(C)C(=CC[C@@H]4[C@@]5(C)CC[C@H](O)C(C)(C)[C@@H]5CC[C@]43C)[C@H]12 [Uvaol, reference compound]",IC85,[1]; [10],> 128 µg/mL
same,IC85,[4]; [11],> 8 µg/mL
